These results are taken from publication PMC9921896 (Molecules, 2023).

This data set in a line: Metabolite identification (MetID) in hepatocytes by LC-MS/MS. The format is in vitro ADME, human. The following applies: 80 min incubation, HR LC-MS/MS, metabolite M1, parent ion m/z 551 (375 + 176). From the text: However, on the contrary, these metabolites can also be formed with higher or equivalent toxicity when compared to the parent ligand. Therefore, to gain such an understanding of metabolite toxicity, 223-2 TbB ligand was shortlisted for metabolite identification (MetID) studies as it was the least prominent CYP inhibitor among the three TbB ligands studied for CYP inhibition, as discussed in earlier sections. The metabolites’ detection and identification were accomplished by utilizing the high-resolution LC-MS/MS (HR LC-MS/MS) technique and the obtained fragmentation pattern was subsequently analyzed to propose putative structures as discussed in the following paragraph. MetID studies was initiated first for the parent 223-2 ligand by HR LC-MS/MS as its fragmentation understanding could act as a guide to potentially identify the metabolites formed after incubation with hepatocytes. Since the 223-2 TbB ligand contain N and O atoms, it could be easily protonated and it was sensitive in positive ionization mode. Consequently, it was studied using the positive fragmentation pattern by ESI-MS ^n .
To understand the fragmentation pattern of the parent compound, EPI spectrum was analyzed. […] Next, TbB ligand 223-2 was incubated (80 min) with hepatocytes and a new metabolite (M1) could be detected when compared with the control (0 min). […]

On to `COc1cc(-c2nnn(-c3cc(OC)c(O)c(OC)c3)n2)cc(OC)c1O` [223-2], for which the “metabolite detected after incubation with hepatocytes” value is listed as “formation of glucuronide”.
